What was measured:
Assay in all cases: relative viability (nuclei count vs DMSO), 5 days (fraction); higher = more cells survive
kb NB 142-70 + OSI-027 = compound: C1CSC2=C(C(=O)N1)SC3=C2C=C(C=C3)O [kb NB 142-70] + COc1cccc2cc(-c3nc([C@H]4CC[C@H](C(=O)O)CC4)n4ncnc(N)c34)[nH]c12 [OSI-027] (partner 0.5 µM)
Procedure, shortened: (§1)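 Lung cancer cell lines, seeded in 1536-well plates, were treated the following day by pin tool with a single drug or with five library-drug doses (not always all listed) in √10 steps on top of a fixed anchor-drug dose. Cells were fixed and nuclei stained in one step after 5 days, and nuclei were counted. Relative viability is the nuclei count for treated wells divided by that for vehicle wells, reported as medians of duplicate plates.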

[1] = compound: C1CSC2=C(C(=O)N1)SC3=C2C=C(C=C3)O [kb NB 142-70] + Cc1cc(Nc2cc(N3CCN(C)CC3)nc(Sc3ccc(NC(=O)C4CC4)cc3)n2)n[nH]1 [Tozasertib] (partner 0.1 µM)
Procedure, shortened: as §1

kb NB 142-70 + AZD7762 = compound: C1CSC2=C(C(=O)N1)SC3=C2C=C(C=C3)O [kb NB 142-70] + NC(=O)Nc1cc(-c2cccc(F)c2)sc1C(=O)N[C@H]1CCCNC1 [AZD7762] (partner 0.2 µM)
Procedure, shortened: as §1

[2] = compound: NCC(=O)Nc1ccc(-n2nc(C(F)(F)F)cc2-c2ccc3c(ccc4ccccc43)c2)cc1 + CCNC(=O)c1noc(-c2cc(C(C)C)c(O)cc2O)c1-c1ccc(CN2CCOCC2)cc1 [Luminespib] (partner 0.01 µM)
Procedure, shortened: as §1

[3] = compound: NCC(=O)Nc1ccc(-n2nc(C(F)(F)F)cc2-c2ccc3c(ccc4ccccc43)c2)cc1 + Cc1nc(NC(=O)N2CCC[C@H]2C(N)=O)sc1-c1ccnc(C(C)(C)C(F)(F)F)c1 [Alpelisib] (partner 2 µM)
Procedure, shortened: as §1

Cell Line	relative viability (kb NB 142-70 + OSI-027; first compound 0.1 µM)	relative viability (kb NB 142-70 + OSI-027; first compound 1 µM)	relative viability (kb NB 142-70 + OSI-027; first compound 3.162 µM)	relative viability ([1]; first compound 0.1 µM)	relative viability ([1]; first compound 1 µM)	relative viability ([1]; first compound 3.162 µM)	relative viability (kb NB 142-70 + AZD7762; first compound 0.1 µM)	relative viability (kb NB 142-70 + AZD7762; first compound 1 µM)	relative viability (kb NB 142-70 + AZD7762; first compound 3.162 µM)	relative viability ([2]; first compound 0.02 µM)	relative viability ([2]; first compound 0.06325 µM)	relative viability ([2]; first compound 0.2 µM)	relative viability ([2]; first compound 0.6325 µM)	relative viability ([2]; first compound 2 µM)	relative viability ([3]; first compound 0.02 µM)	relative viability ([3]; first compound 0.06325 µM)	relative viability ([3]; first compound 0.2 µM)	relative viability ([3]; first compound 0.6325 µM)	relative viability ([3]; first compound 2 µM)
NCI-H3122	0.922	0.919	0.726	0.366	0.459	0.165	1	1.03	1.02	0.0686	0.0831	0.127	0.113	0.116	0.852	0.847	0.801	0.823	0.746
NCI-H1975	0.808	0.741	0.597	0.787	0.746	0.28	0.652	0.748	0.7	0.125	0.29	0.236	0.278	0.247	0.668	0.64	0.652	0.677	0.693
NCI-H1944	0.386	0.443	0.426	0.244	0.244	0.27	0.492	0.514	0.6	0.667	0.71	0.787	0.715	0.75	0.865	0.833	0.793	0.818	0.87
LU99A	0.325	0.327	0.317	0.285	0.237	0.195	0.386	0.493	0.462	0.261	0.249	0.229	0.238	0.19	0.563	0.489	0.56	0.562	0.456
NCI-H2347	0.461	0.416	0.384	0.69	0.589	0.506	0.873	0.924	0.737	0.427	0.634	0.7	0.686	0.7	1.04	1.03	1.18	1.15	1.12
HCC-15	0.698	0.703	0.516	0.427	0.471	0.227	1.2	1.29	1.28	0.332	0.306	0.302	0.365	0.335	0.879	0.9	0.889	0.956	0.865
HCC-44	0.701	0.439	0.685	0.728	0.901	0.722	0.99	1.06	1.06	1.1	1.05	1.06	1.03	0.938	0.752	0.832	0.817	0.709	0.785
NCI-H727	0.716	0.583	0.67	0.607	0.541	0.514	0.531	0.688	0.769	0.325	0.352	0.322	0.32	0.401	0.636	0.561	0.614	0.531	0.686
NCI-H2087	0.532	0.677	0.35	0.267	0.201	0.141	1.38	1.45	1.18	0.151	0.19	0.214	0.138	0.196	1.14	0.82	1.06	1.16	0.945
BEN	0.306	0.301	0.202	0.459	0.455	0.437	0.727	0.623	0.531	0.254	0.67	0.211	0.467	0.311	1.04	1.06	1.1	1.05	1.06
LCLC-103H	0.493	0.452	0.454	0.472	0.524	0.417	0.766	0.782	0.894	0.932	0.919	1.03	0.925	0.895	0.924	0.916	1.03	0.917	0.985
EKVX	0.707	0.675	0.788	0.353	0.382	0.466	0.739	0.704	0.684	0.957	0.923	0.894	0.842	0.909	0.939	0.809	0.924	0.927	1.01
LXF-289	0.737	0.695	0.681	0.173	0.192	0.181	1.11	1.1	1.27	0.686	0.67	0.633	0.637	0.702	1.08	1.08	1.09	1.06	1.01
ABC-1	0.481	0.506	0.346	0.178	0.165	0.169	0.936	0.927	0.758	0.478	0.813	–	0.372	0.748	0.955	0.88	–	1.06	1.14
NCI-H650	0.535	0.519	0.52	0.747	0.668	0.435	0.999	1.09	0.774	0.725	0.878	0.867	0.734	0.973	0.882	1.24	1.3	1.13	1.37
NCI-H2085	0.878	0.876	0.388	0.796	0.825	0.661	1.02	1.08	0.77	0.537	0.473	0.466	0.445	0.472	0.963	0.978	0.943	0.972	0.965
NCI-H1793	0.34	0.311	0.294	0.377	0.346	0.197	0.6	0.667	0.615	0.398	0.155	0.18	0.192	0.213	0.682	0.734	0.72	0.666	0.736
LC-2-ad	0.779	0.842	0.699	0.451	0.428	0.341	0.826	0.825	0.888	1.01	1.05	1.12	1.11	1.14	1.07	0.947	0.945	0.883	0.959
NCI-H1355	0.44	0.38	0.378	0.577	0.542	0.428	0.776	0.81	1	0.668	0.765	0.72	0.791	0.752	0.781	0.949	0.825	0.838	0.865
H3255	0.606	0.603	0.554	0.534	0.785	0.746	0.86	0.925	0.999	0.781	1.03	0.9	0.777	0.984	0.782	0.651	0.746	0.811	0.731
NCI-H1993	0.51	0.578	0.479	0.604	0.648	0.536	0.73	0.611	1.03	0.887	0.88	0.901	0.784	0.957	0.731	0.654	0.612	0.621	0.762
NCI-H1734	0.584	0.509	0.396	0.271	0.263	0.234	0.585	0.589	0.507	0.201	0.213	0.181	0.24	0.187	0.748	0.759	0.751	0.671	0.775
HOP-62	0.868	0.751	0.699	0.314	0.315	0.245	0.691	1.1	0.764	0.887	0.911	0.862	0.9	0.951	1.09	0.995	0.922	0.975	0.859
LOU-NH91	0.699	0.695	0.651	0.599	0.557	0.338	0.767	0.762	0.637	0.334	0.38	0.314	0.339	0.352	0.789	0.788	0.702	0.775	0.799
PC-14	0.754	0.962	0.609	0.569	0.612	0.531	0.353	0.295	0.408	0.146	0.154	0.19	0.218	0.182	1.04	0.952	1.02	0.889	1.04
NCI-H1437	0.908	0.968	0.921	0.407	0.421	0.446	1.14	1.12	1	1.11	0.991	1.13	1.12	1.05	0.944	0.995	0.999	0.913	0.918
NCI-H460	0.677	0.576	0.315	0.541	0.397	0.254	0.618	0.904	0.953	0.032	0.0402	0.0319	0.0282	0.0345	0.576	0.425	0.486	0.491	0.449
NCI-H1666	0.786	0.875	0.875	0.642	0.614	0.479	0.879	0.714	0.89	0.982	1.06	0.925	1.07	0.93	1.07	0.869	0.852	0.937	1.09

— the supplement of paper PMC10307832
